Measurements from US20170051149A1, “AZOARYLS AS REVERSIBLY MODULATABLE TUBULIN INHIBITORS” (ECOLE NORMALE SUPERIEURE DE LYON, priority 2014, published 2017).
pIC50: −log10 of the molar value.

Experiments:
HeLa cells [1] = experiment: MTT assay; format: cell-based; conditions: 50 nM, 48 h
Text: The cytotoxic properties of I.1 were subsequently confirmed with another method, using the quantification of mitochondrial dehydrogenase activity of cells as determined by the level of 3-(4.5-dimethylthiazol-2-yl)-2.5-diphenyl tetrazolium bromide (MTT) reduction to its purple formazan, according to standard protocol^[30]. […] Cells were kept in the dark, or exposed to a pulsed toxic regime of 390 nm only, or exposed to a strong rescue protocol with pulses of 390 nm then 505 nm light. Pulses of light were applied every 30 s; 390 nm light pulses lasted 150 ms every 30 s, while the 505 nm light pulses were applied for 500 ms; in the strong rescue regime, the 505 nm pulse was synchronised so that it began immediately after the 390 nm pulse ended.
Cellular viability was measured 48 h later, namely, cells were incubated with MTT for three hours and after dissolution of the formazan crystals with DMSO, absorbance at 550 nm was measured using a FLUOstar Omega microplate reader. Results are shown in Table 5 below and are expressed as a fold growth relative to the control growth of the cells treated only with a co-solvent (0.5% MeCN) and represent mean and standard deviation of quadruplicates of the optical density values, which are proportional to the cell number.

HEK-293T cells = experiment: MTT assay, light-dependent cell proliferation; format: cell-based; conditions: 72 h
HEK-293 = experiment: cell cycle analysis by PI flow cytometry; format: cell-based; conditions: 15 nM, 30 h
Experimental: (§1) The effect of compound I.1 on cell cycle progression was assessed by flow cytometry. Briefly, following the application of compound I.1 and exposure to the indicated light regime, cells were harvested on ice and incubated in a hypotonic buffer [0.1% sodium citrate, 0.1% Triton X-100 and 50 μg/mL propidium iodide (PI)] for 30 min at 4° C. Following the PI staining cells were analysed by flow cytometry using FACSCalibur flow cytometer (Becton Dickinson, Heidelberg, Germany) and Cell Quest Pro Software (Becton Dickinson). Subsequently the cell cycle analysis was performed using the FlowJo software (Tree Star Inc., Ashland, Oreg., USA).

HeLa [2] = experiment: cell cycle analysis by PI flow cytometry; format: cell-based; conditions: 15 nM, 30 h
Experimental: as §1

MDA-MB-231 cells = experiment: cell cycle analysis by PI flow cytometry; format: cell-based; conditions: 15 nM, 30 h
Experimental: as §1

HeLa [3] = experiment: membrane permeability, PI uptake in nonpermeabilized cells; format: cell-based; conditions: 15 nM, 70 h
Experimental: (§2) Membrane integrity was assessed as a marker of cellular viability, via examining the uptake of propidium iodide (PI) in nonpermeabilized cells according to a standard protocol. Namely, cells were harvested and incubated with 5 μg/mL PI in PBS containing 2% FCS (foetal calf serum), and immediately analysed by flow cytometry using a FACSCalibur flow cytometer.

Jurkat cells [4] = experiment: as above; format: cell-based; conditions: 15 nM, 48 h
Experimental: as §2

MDA-MB-231 = experiment: as above; format: cell-based; conditions: 15 nM, 70 h
Experimental: as §2

HeLa cells [5] = experiment: nuclear fragmentation (subG1, Nicoletti), induction of apoptosis; format: cell-based; conditions: 15 nM, 30 h
Experimental: (§3) Different cell types, including MDA-MB-231, Jurkat, HeLa and HepG2 cells, were treated with indicated concentrations of compound I.1 and exposed to a 390 nm toxic regime, a rescue regime with both 390 nm and 515 nm light, or kept in the dark. Following the treatment, cells were stained with PI and the percentage of cells containing a hypodiploid amount of DNA (subG1 phase of cell cycle), was determined. Briefly, prior to analysis, cells were harvested on ice and incubated in a hypotonic buffer [0.1% sodium citrate, 0.1% Triton X-100 and 50 μg/mL propidium iodide (PI)] for 30 min at 4° C. Following the PI staining cells were analysed by flow cytometry using FACSCalibur flow cytometer (Becton Dickinson, Heidelberg, Germany) and Cell Quest Pro Software (Becton Dickinson).

Jurkat cells [6] = experiment: as above; format: cell-based; conditions: 48 h
Experimental: as §3

tubulin = conditions: trans isomer; read-out: in vitro IC50, tubulin polymerisation; cited from earlier work

COc1ccc(/C=C\c2cc(OC)c(OC)c(OC)c2)cc1OP(=O)(O)O [CA4P, fosbretabulin, reference compound]
mean fold growth (HeLa cells [1]; 390 nm (150 ms every 30 s)): 0.38 fold
mean fold growth (HeLa cells [1]; Dark): 0.29 fold
fold growth relative to cosolvent control (MTT) (HEK-293T cells; 5 nM, 390 nm, 0.35 s every 2 min): 1.29
fold growth relative to cosolvent control (MTT) (HEK-293T cells; 5 nM, 390 nm, 0.35s then 490 nm, 3 s (rescue) every 2 min): 1.28
fold growth relative to cosolvent control (MTT) (HEK-293T cells; 5 nM, 410 nm, 0.35 s every 2 min): 1.19
fold growth relative to cosolvent control (MTT) (HEK-293T cells; 5 nM, 410 nm, 0.35 s then 505 nm, 3 s (rescue) every 2 min): 1.20
fold growth relative to cosolvent control (MTT) (HEK-293T cells; 5 nM, 475 nm, 3 s every 2 min): 1.12
fold growth relative to cosolvent control (MTT) (HEK-293T cells; 5 nM, 490 nm, 3 s every 2 min): 1.43
fold growth relative to cosolvent control (MTT) (HEK-293T cells; 5 nM, 505 nm, 3 s every 2 min): 1.07
fold growth relative to cosolvent control (MTT) (HEK-293T cells; 5 nM, 525 nm, 3 s every 2 min): 0.86
fold growth relative to cosolvent control (MTT) (HEK-293T cells; 5 nM, Dark): 0.82
fold growth relative to cosolvent control (MTT) (HEK-293T cells; 15 nM, 390 nm, 0.35 s every 2 min): 0.88
fold growth relative to cosolvent control (MTT) (HEK-293T cells; 15 nM, 390 nm, 0.35s then 490 nm, 3 s (rescue) every 2 min): 0.82
fold growth relative to cosolvent control (MTT) (HEK-293T cells; 15 nM, 410 nm, 0.35 s every 2 min): 0.80
fold growth relative to cosolvent control (MTT) (HEK-293T cells; 15 nM, 410 nm, 0.35 s then 505 nm, 3 s (rescue) every 2 min): 0.81
fold growth relative to cosolvent control (MTT) (HEK-293T cells; 15 nM, 475 nm, 3 s every 2 min): 0.70
fold growth relative to cosolvent control (MTT) (HEK-293T cells; 15 nM, 490 nm, 3 s every 2 min): 0.97
fold growth relative to cosolvent control (MTT) (HEK-293T cells; 15 nM, 505 nm, 3 s every 2 min): 0.75
fold growth relative to cosolvent control (MTT) (HEK-293T cells; 15 nM, 525 nm, 3 s every 2 min): 0.81
fold growth relative to cosolvent control (MTT) (HEK-293T cells; 15 nM, Dark): 0.79
mean % G2/M phase (HEK-293; 390 nm (1 s every 15 min)): 70.1%
mean % G2/M phase (HEK-293; dark): 72.0%
mean % G2/M phase (HeLa [2]; 390 nm (1 s every 15 min)): 69.5%
mean % G2/M phase (HeLa [2]; dark): 69.0%
mean % G2/M phase (MDA-MB-231 cells; 390 nm (1 s every 15 min)): 50.9%
mean % G2/M phase (MDA-MB-231 cells; dark): 51.3%
mean % cells PI+ (HeLa [3]; 390 nm (1 s every 15 min)): 63.9%
mean % cells PI+ (HeLa [3]; dark): 62.5%
mean % cells PI+ (Jurkat cells [4]; 390 nm (350 ms every 5 min)): 5.7%
mean % cells PI+ (Jurkat cells [4]; dark): 8.0%
mean % cells PI+ (MDA-MB-231; 390 nm (1 s every 15 min)): 43.2%
mean % cells PI+ (MDA-MB-231; dark): 45.1%
mean % subG1 phase (HeLa cells [5]; 390 nm light (1 s pulses every 15 min)): 12.3%
mean % subG1 phase (HeLa cells [5]; dark): 11.5%
mean % subG1 phase (Jurkat cells [6]; 5 nM, 390 nm (350 ms pulses every 5 min)): 40.4%
mean % subG1 phase (Jurkat cells [6]; 5 nM, dark): 37.5%
mean % subG1 phase (Jurkat cells [6]; 15 nM, 390 nm (350 ms pulses every 5 min)): 91.5%
mean % subG1 phase (Jurkat cells [6]; 15 nM, dark): 89.7%

CCCCCCCOc1ccc(/N=N/c2ccc(CNN[C@H](C=O)CCCCN)cc2)cc1 [P1]
pIC50 (tubulin): ~4.00
